The source of these data is patent US9617258B2, “Pyrrolo[2,3-d]pyrimidinyl, pyrrolo[2,3-b]pyrazinyl and pyrrolo[2,3-d]pyridinyl acrylamides” (Pfizer Inc., priority 2013, dated 2017).

The target in series [1] is T1, JAK3 enzyme (Homo sapiens (Human), UniProt P52333). Description: JAK Caliper enzyme assay at 1 mM ATP. The class given is biochemical. Here is the method: (§1) JAK Caliper Enzyme Assay at 4 μM or 1 mM ATP
(§2) Test article was solubilized in dimethyl sulfoxide (DMSO) to a stock concentration of 30 mM. An 11-point half log dilution series was created in DMSO with a top concentration of 600 μM. […] The compound plates were diluted 1 to 60 resulting in a top final assay compound concentration of 10 μM and a 2% DMSO concentration.
(§3) Test article and assay controls were added to a 384-well plate. Reaction mixtures contained 20 mM HEPES, pH 7.4, 10 mM magnesium chloride, 0.01% bovine serum albumin (BSA), 0.0005% Tween 20, 4 μM or 1 mM ATP and 1 μM peptide substrate. […] The assays were initiated by the addition 1 nM JAK3 enzyme and were incubated at room temperature 75 minutes for JAK3. Enzyme concentrations and incubation times were optimized for each new enzyme preps and were modified slightly over time to ensure 20%-30% phosphorylation. The assays were stopped with a final concentration of 10 mM EDTA, 0.1% Coating Reagent and 100 mM HEPES, pH=7.4. The assay plates were placed on a Caliper Life Science Lab Chip 3000 (LC3000) instrument, and each well was sampled using appropriate separation conditions to measure the unphosphorylated and phosphorylated peptide.

The target in series [2] is T1, JAK3 enzyme. Description: JAK Caliper enzyme assay at 4 μM ATP. Type of series: biochemical. Here is the method:
as §1, §2, §3

Series [3] is described as follows: Stability of JAK3 covalent inhibitors in human whole blood.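 Further: parent compound remaining over incubation time quantified by LC-MS/MS as peak area ratio against an internal standard, using pooled K2-EDTA blood.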 The class given is in vitro ADME. The conditions noted are these: both sexes, 37° C., read-out: Human blood stability t1/2.

Usually IC50 stands for the concentration at which inhibition is half-maximal.

Like-named read-outs stand apart in the source and are kept apart here.

T1 sequence (P52333 whole entry, species assumed): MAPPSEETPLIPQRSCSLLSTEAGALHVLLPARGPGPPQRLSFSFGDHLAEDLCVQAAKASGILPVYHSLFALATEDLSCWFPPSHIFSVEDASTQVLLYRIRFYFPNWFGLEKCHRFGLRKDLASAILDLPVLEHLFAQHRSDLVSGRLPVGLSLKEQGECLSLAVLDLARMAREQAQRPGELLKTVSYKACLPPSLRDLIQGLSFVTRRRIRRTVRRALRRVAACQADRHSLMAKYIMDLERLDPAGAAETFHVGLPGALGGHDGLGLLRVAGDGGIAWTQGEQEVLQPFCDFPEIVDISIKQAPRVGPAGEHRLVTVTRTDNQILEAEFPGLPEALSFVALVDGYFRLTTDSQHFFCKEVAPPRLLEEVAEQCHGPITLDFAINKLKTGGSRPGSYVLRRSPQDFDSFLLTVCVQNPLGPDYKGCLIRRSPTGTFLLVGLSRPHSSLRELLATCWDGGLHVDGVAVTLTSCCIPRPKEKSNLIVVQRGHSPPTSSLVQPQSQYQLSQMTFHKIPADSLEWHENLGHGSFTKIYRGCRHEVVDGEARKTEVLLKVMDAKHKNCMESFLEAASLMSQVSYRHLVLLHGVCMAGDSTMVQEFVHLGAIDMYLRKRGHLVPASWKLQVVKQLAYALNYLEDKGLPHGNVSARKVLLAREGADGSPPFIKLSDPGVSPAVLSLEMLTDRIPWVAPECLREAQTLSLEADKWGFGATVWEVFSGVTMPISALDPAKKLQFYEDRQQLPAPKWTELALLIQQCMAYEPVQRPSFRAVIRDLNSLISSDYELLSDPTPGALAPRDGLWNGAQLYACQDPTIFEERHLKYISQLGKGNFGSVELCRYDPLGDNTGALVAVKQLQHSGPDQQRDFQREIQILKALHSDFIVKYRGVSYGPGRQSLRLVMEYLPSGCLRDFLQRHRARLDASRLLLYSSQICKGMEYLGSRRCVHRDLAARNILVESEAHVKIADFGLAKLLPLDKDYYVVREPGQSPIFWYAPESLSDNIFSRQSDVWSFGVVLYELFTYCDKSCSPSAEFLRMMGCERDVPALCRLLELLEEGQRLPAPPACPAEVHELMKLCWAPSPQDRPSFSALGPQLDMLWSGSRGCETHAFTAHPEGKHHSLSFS

As to `C=CC(=O)c1c[nH]c2ncnc(N[C@H]3CN(C(=O)C=C)CC[C@H]3F)c12` [Example 120, 1-(4-{[(3S,4R)-1-Acryloyl-4-fluoropiperidin-3-yl]amino}-7H-pyrrolo[2,3-d]pyrimidin-5-yl)prop-2-en-1-one], the IC50 on JAK3 enzyme [1] (read-out: JAK3 (1 mM ATP) IC50) is above 10 µM.

For `C=CC(=O)N1CC[C@H](O)[C@@H](Nc2ncnc3[nH]ccc23)C1` (racemic) [Example 113, rac-1-[(3S,4S)-4-Hydroxy-3-(7H-pyrrolo[2,3-d]pyrimidin-4-ylamino)piperidin-1-yl]prop-2-en-1-one], the values for the IC50 on JAK3 enzyme [2] and at JAK3 enzyme [1] were 0.0424 µM and 8.48 µM, respectively.

As for `C=CC(=O)N1CCC(Nc2cnc3[nH]cc(C(=O)N[C@@H]4C[C@H]4C(F)(F)F)c3n2)CC1` [Example 233, 2-[(1-acryloylpiperidin-4-yl)amino]-N-[(1R,2R)-2-(trifluoromethyl)cyclopropyl]-5H-pyrrolo[2,3-b]pyrazine-7-carboxamide], the IC50 was determined as 0.0002 µM on JAK3 enzyme [2] (read-out: JAK3 (4 μM ATP) IC50) and 0.0206 µM on JAK3 enzyme [1] (read-out: JAK3 (1 mM ATP) IC50).

In the case of `C=CC(=O)N1CCC[C@H](Nc2ncnc3[nH]ccc23)[C@H]1C` (racemic) [Example 121, rac-1-((2R,3S)-3-((7H-Pyrrolo[2,3-d]pyrimidin-4-yl)amino)-2-methylpiperidin-1-yl)prop-2-en-1-one], the IC50 against JAK3 enzyme [2] is 0.648 µM; against JAK3 enzyme [1], above 10 µM. In series [3] (whole blood), the half-life at 1 μM was above 6 h.

With `C=CC(=O)N1CC[C@@H](Nc2cnc3[nH]ccc3n2)C1` [Example 335, (R)-1-(3-((5H-Pyrrolo[2,3-b]pyrazin-2-yl)amino)pyrrolidin-1-yl)prop-2-en-1-one], on JAK3 enzyme [1] (read-out: JAK3 (1 mM ATP) IC50), the IC50 is above 10 µM.

As for `C=CC(=O)N1C[C@@H](Nc2ncnc3[nH]ccc23)[C@@H]2CC[C@H]1C2` [Example 126, 1-((1S,4S,5R)-4-(7H-pyrrolo[2,3-d]pyrimidin-4-ylamino)-2-azabicyclo[3.2.1]octan-2-yl)prop-2-en-1-one], the half-inhibitory concentration (IC50) on JAK3 enzyme [2] (read-out: JAK3 (4 μM ATP) IC50) is 0.603 µM; on JAK3 enzyme [1] it was above 10 µM.

On to `O=C(C1=CCC1)N1CC[C@@H]2CCN(c3ncnc4[nH]ccc34)[C@@H]2C1` [Example 86, cyclobut-1-en-1-yl[(3aS,7aS)-1-(7H-pyrrolo[2,3-d]pyrimidin-4-yl)octahydro-6H-pyrrolo[2,3-c]pyridin-6-yl]methanone], for which the IC50 on JAK3 enzyme [2] (read-out: JAK3 (4 μM ATP) IC50) was 0.149 µM; on JAK3 enzyme [1] (read-out: JAK3 (1 mM ATP) IC50), above 10 µM. Besides, in series [3] (whole blood), the half-life at 1 μM was above 6 h.

For the molecule `C/C=C/C(=O)N1CC[C@@H]2CCN(c3ncnc4[nH]ccc34)[C@@H]2C1` [Example 84, (2E)-1-[(3aS,7aS)-1-(7H-pyrrolo[2,3-d]pyrimidin-4-yl)octahydro-6H-pyrrolo[2,3-c]pyridin-6-yl]but-2-en-1-one], the IC50 at JAK3 enzyme [2] (read-out: JAK3 (4 μM ATP) IC50) is 0.727 µM; on JAK3 enzyme [1] (read-out: JAK3 (1 mM ATP) IC50) it was above 10 µM.

In the case of `C=CC(=O)N1C[C@H](Nc2ncnc3[nH]ccc23)[C@H]2CC[C@@H]1C2` [Example 127, 1-((1R,4R,5S)-4-(7H-pyrrolo[2,3-d]pyrimidin-4-ylamino)-2-azabicyclo[3.2.1]octan-2-yl)prop-2-en-1-one], the IC50 at JAK3 enzyme [2] (read-out: JAK3 (4 μM ATP) IC50) is 0.19 µM; at JAK3 enzyme [1] (read-out: JAK3 (1 mM ATP) IC50) it was above 10 µM.

On to `C=CC(=O)N1CCC(Nc2cnc3[nH]cc(C(=O)N[C@H](C)CCC)c3n2)CC1` [Example 274, 2-[(1-acryloylpiperidin-4-yl)amino]-N-[(2R)-pentan-2-yl]-5H-pyrrolo[2,3-b]pyrazine-7-carboxamide], for which, in series [3] (whole blood), the half-life at 1 μM was above 6 h.

Regarding `C=CC(=O)N1C[C@H](O)C[C@@H](Nc2ncnc3[nH]ccc23)C1` [Example 60, 1-((3R,5R)-3-((7H-Pyrrolo[2,3-d]pyrimidin-4-yl)amino)-5-hydroxypiperidin-1-yl)prop-2-en-1-one], the half-life at 1 μM in series [3] (whole blood) was above 6 h.

Consider `CN(C)C/C=C/C(=O)N1CC[C@@H]2CCN(c3ncnc4[nH]ccc34)[C@@H]2C1` [Example 82, (2E)-4-(dimethylamino)-1-[(3aS,7aS)-1-(7H-pyrrolo[2,3-d]pyrimidin-4-yl)octahydro-6H-pyrrolo[2,3-c]pyridin-6-yl]but-2-en-1-one], for which the half-life at 1 μM in series [3] (whole blood) was above 6 h.

With `C=CC(=O)N1CC[C@@H](Nc2cnc3[nH]cc(C(=O)NC(C)C)c3n2)[C@H](OC)C1` [Example 305, 2-{[(3R,4R)-1-acryloyl-3-methoxypiperidin-4-yl]amino}-N-(propan-2-yl)-5H-pyrrolo[2,3-b]pyrazine-7-carboxamide], the half-life at 1 μM in series [3] (whole blood) amounted to 5.95 h.

With `C=CC(=O)N1CCC(Nc2cnc3[nH]cc(C(=O)N[C@@H]4CCC[C@H]4F)c3n2)CC1` [Example 237, 2-[(1-acryloylpiperidin-4-yl)amino]-N-[(1R,2R)-2-fluorocyclopentyl]-5H-pyrrolo[2,3-b]pyrazine-7-carboxamide], the half-life at 1 μM in series [3] (whole blood) was 4.05 h.

In the case of `C=CC(=O)N1CCC(Nc2cnc3[nH]cc(C(=O)NC(C)(C)CC)c3n2)CC1` [Example 276, 2-[(1-acryloylpiperidin-4-yl)amino]-N-(2-methylbutan-2-yl)-5H-pyrrolo[2,3-b]pyrazine-7-carboxamide], in series [3] (whole blood), the half-life at 1 μM stood at 3.75 h.

In the case of `C=CC(=O)N1CCC(Nc2cnc3[nH]cc(C(=O)N[C@@H](C)CC)c3n2)CC1` [Example 285, 2-[(1-acryloylpiperidin-4-yl)amino]-N-[(2S)-butan-2-yl]-5H-pyrrolo[2,3-b]pyrazine-7-carboxamide], in series [3] (whole blood), the half-life at 1 μM was found to be 5.75 h.

`C/C=C/C(=O)N1CC[C@@H](O)[C@@H](Nc2ncnc3[nH]ccc23)C1` (racemic) [Example 160, rac-(2E)-1-[(3S,4R)-4-Hydroxy-3-(7H-pyrrolo[2,3-d]pyrimidin-4-ylamino)piperidin-1-yl]but-2-en-1-one]: the IC50 at JAK3 enzyme [2] was above 10 µM.

On to `C=CC(=O)N1CCC(Oc2cnc3[nH]cc(C(=O)NC(C)(C)C)c3n2)CC1` [Example 338, 2-((1-Acryloylpiperidin-4-yl)oxy)-N-(tert-butyl)-5H-pyrrolo[2,3-b]pyrazine-7-carboxamide], for which, in series [3] (whole blood), the half-life at 1 μM turned out to be 5.47 h.

`C=CC(=O)N1CCC[C@@H](Nc2ccnc3[nH]cc(C)c23)C1` [Example 47, 1-{(3R)-3-[(3-methyl-1H-pyrrolo[2,3-b]pyridin-4-yl)amino]piperidin-1-yl}prop-2-en-1-one]: the half-life at 1 μM in series [3] (whole blood) was 5.26 h.

`C=CC(=O)N1CC(Nc2ncnc3[nH]ccc23)CCC1CO` (stereo not drawn) [Example 52, 1-[2-(Hydroxymethyl)-5-(7H-pyrrolo[2,3-d]pyrimidin-4-ylamino)piperidin-1-yl]prop-2-en-1-one]: the half-life at 1 μM in series [3] (whole blood) was above 5.97 h.

Regarding `C=CC(=O)N1C[C@@H]2C[C@H]1CN2c1cnc2[nH]cc(C(=O)NC(C)C)c2n1` [Example 300, 2-[(1S,4S)-5-acryloyl-2,5-diazabicyclo[2.2.1]hept-2-yl]-N-(propan-2-yl)-5H-pyrrolo[2,3-b]pyrazine-7-carboxamide], the values for the IC50 against JAK3 enzyme [2] and at JAK3 enzyme [1] were 0.0009 µM and 0.0844 µM, respectively. Further, the half-life at 1 μM in series [3] (whole blood (fresh, pooled, K2-EDTA)) was determined as 1.95 h.

Regarding `C=CC(=O)N1CCC(C)(Nc2cnc3[nH]cc(C(=O)NC(C)C)c3n2)CC1` [Example 318, 2-[(1-acryloyl-4-methylpiperidin-4-yl)amino]-N-(propan-2-yl)-5H-pyrrolo[2,3-b]pyrazine-7-carboxamide], in series [3] (whole blood), the half-life at 1 μM is 5.87 h.

For `C=CC(=O)N1C[C@H](Nc2ncnc3[nH]ccc23)CC[C@H]1CC` [Example 124, 1-[(2R,5R)-2-Ethyl-5-(7H-pyrrolo[2,3-d]pyrimidin-4-ylamino)piperidin-1-yl]prop-2-en-1-one], the IC50 on JAK3 enzyme [2] (read-out: JAK3 (4 μM ATP) IC50) was 0.265 µM; at JAK3 enzyme [1] (read-out: JAK3 (1 mM ATP) IC50), above 10 µM.

Turning to `C=CC(=O)N1CCC(Nc2cnc3[nH]cc(C(=O)N[C@@H](C)CCC)c3n2)CC1` [Example 267, 2-[(1-acryloylpiperidin-4-yl)amino]-N-[(2S)-pentan-2-yl]-5H-pyrrolo[2,3-b]pyrazine-7-carboxamide], the half-life at 1 μM in series [3] (whole blood) was determined as 3.73 h.
